Patent US20030165954A1, “Cancer profiles” (Third Wave Technologies, Inc., priority 2002, published 2003)

Details: mouse, in vivo, iv

Compound | plasma concentrations
CN(Cc1cnc2nc(N)nc(N)c2n1)c1ccc(C(=O)N[C@@H](CCC(=O)O)C(=O)O)cc1 [MTX, methotrexate] | did not reach the levels in nude mice that they do in patients receiving clinical doses
O=c1[nH]cc(F)c(=O)[nH]1 [5FU, 5-fluorouracil] | did not reach the levels in nude mice that they do in patients receiving clinical doses
